Assay results published in patent US5698522A, “6-position modified decapeptide LHRH antagonists” (Abbott Laboratories, priority 1995, dated 1997).
Where a SMILES comes first, the peptide text is derived from it. Side-chain parts run from the residue outwards. [ ]: non-standard residue; d: D form. The star is where a group is joined. Shikimoyl = O=C(C1=C[C@@H](O)[C@@H](O)[C@H](O)C1)*; Quinoline3carbonyl = O=C(c1cnc2ccccc2c1)*; Quinoline4carbonyl = O=C(c1ccnc2ccccc12)*; dPhe(4-Cl) = N[C@H](Cc1ccc(Cl)cc1)C(=O)O; d2Nal = N[C@H](Cc1ccc2ccccc2c1)C(=O)O; NMeY = CN[C@@H](Cc1ccc(O)cc1)C(=O)O; Pyrazinecarbonyl = O=C(c1cnccn1)*; d3Pal = N[C@H](Cc1cccnc1)C(=O)O; Nicotinoyl = O=C(c1cccnc1)*; dOrn = NCCC[C@@H](N)C(=O)O; βAla = NCCC(=O)O; Sar = CNCC(=O)O

Biological target: T1, LHRH receptor (Rattus norvegicus, UniProt P30969)
T1 construct: endogenous in cells
T1 sequence (P30969 1-327): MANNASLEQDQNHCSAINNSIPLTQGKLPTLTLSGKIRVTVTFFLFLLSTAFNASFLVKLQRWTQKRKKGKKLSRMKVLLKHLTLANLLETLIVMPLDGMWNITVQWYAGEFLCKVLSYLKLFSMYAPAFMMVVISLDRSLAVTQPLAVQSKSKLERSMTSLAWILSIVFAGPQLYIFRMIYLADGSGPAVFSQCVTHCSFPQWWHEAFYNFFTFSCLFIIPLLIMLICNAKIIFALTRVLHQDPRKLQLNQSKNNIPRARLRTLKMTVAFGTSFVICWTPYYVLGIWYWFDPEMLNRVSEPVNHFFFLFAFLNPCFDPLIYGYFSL
Assay: in vitro LHRH antagonist potency (pA2) against the agonist leuprolide
Type: cell-based
Conditions: negative logarithm of the antagonist concentration which shifts the response curve produced by the agonist leuprolide to two-fold higher concentration
Method in brief: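 Functional antagonism against the agonist leuprolide. pA2 is the negative log of antagonist concentration that shifts the leuprolide response curve to twofold higher concentration.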

| SMILES | Kb [pM] |
| --- | --- |
| CC(=O)N[C@H](Cc1ccc2ccccc2c1)C(=O)N[C@H](Cc1ccc(Cl)cc1)C(=O)N[C@H](Cc1cccnc1)C(=O)N[C@@H](CO)C(=O)N(C)[C@@H](Cc1ccc(O)cc1)C(=O)N[C@H](CCCCNC(=O)CN(C)C(=O)C1=C[C@@H](O)[C@@H](O)[C@H](O)C1)C(=O)N[C@@H](CC(C)C)C(=O)N[C@@H](CCCNC(=N)N)C(=O)N1CCC[C@H]1C(=O)N[C@H](C)C(N)=O [Example 48f, NAc-D2Nal^1 -D4ClPhe^2 -D3Pal^3 -Ser^4 -NMeTyr^5 -DLys(N-epsilon-Sar-Shikimyl)^6 -Leu^7 -Arg^8 -Pro^9 -DAla^10 NH2] (Ac-[d2Nal][dPhe(4-Cl)][d3Pal]S[NMeY][dK]([Sar-Shikimoyl])LRP[dA]-NH2) | 12.6 |
| CC(=O)N[C@H](Cc1ccc2ccccc2c1)C(=O)N[C@H](Cc1ccc(Cl)cc1)C(=O)N[C@H](Cc1cccnc1)C(=O)N[C@@H](CO)C(=O)N(C)[C@@H](Cc1ccc(O)cc1)C(=O)N[C@H](CCCCNC(=O)CCNC(=O)C1=C[C@@H](O)[C@@H](O)[C@H](O)C1)C(=O)N[C@@H](CC(C)C)C(=O)N[C@@H](CCCNC(=N)N)C(=O)N1CCC[C@H]1C(=O)N[C@H](C)C(N)=O [Example 48g, NAc-D2Nal^1 -D4ClPhe^2 -D3Pal^3 -Ser^4 -NMeTyr^5 -DLys(N-epsilon-Beta-alanyl-Shikimyl)^6 -Leu^7 -Arg^8 -Pro^9 -DAla^10 NH2] (Ac-[d2Nal][dPhe(4-Cl)][d3Pal]S[NMeY][dK]([βAla-Shikimoyl])LRP[dA]-NH2) | 12.6 |
| CC(=O)N[C@H](Cc1ccc2ccccc2c1)C(=O)N[C@H](Cc1ccc(Cl)cc1)C(=O)N[C@H](Cc1cccnc1)C(=O)N[C@@H](CO)C(=O)N(C)[C@@H](Cc1ccc(O)cc1)C(=O)N[C@H](CCCCNC(=O)[C@@H](Cc1c[nH]cn1)NC(=O)C1=C[C@@H](O)[C@@H](O)[C@H](O)C1)C(=O)N[C@@H](CC(C)C)C(=O)N[C@@H](CCCNC(=N)N)C(=O)N1CCC[C@H]1C(=O)N[C@H](C)C(N)=O [Example 48h, NAc-D2Nal^1 -D4ClPhe^2 -D3Pal^3 -Ser^4 -NMeTyr^5 -DLys(N-epsilon-D-His-Shikimyl)^6 -Leu^7 -Arg^8 -Pro^9 -DAla^10 NH2] (Ac-[d2Nal][dPhe(4-Cl)][d3Pal]S[NMeY][dK]([dH-Shikimoyl])LRP[dA]-NH2) | 38 |
| CC(=O)N[C@H](Cc1ccc2ccccc2c1)C(=O)N[C@H](Cc1ccc(Cl)cc1)C(=O)N[C@H](Cc1cccnc1)C(=O)N[C@@H](CO)C(=O)N(C)[C@@H](Cc1ccc(O)cc1)C(=O)N[C@H](CCCCNC(=O)[C@@H](Cc1cccnc1)NC(=O)C1=C[C@@H](O)[C@@H](O)[C@H](O)C1)C(=O)N[C@@H](CC(C)C)C(=O)N[C@@H](CCCNC(=N)N)C(=O)N1CCC[C@H]1C(=O)N[C@H](C)C(N)=O [Example 48i, NAc-D2Nal^1 -D4ClPhe^2 -D3Pal^3 -Ser^4 -NMeTyr^5 -DLys(N-epsilon-D-3Pal-Shikimyl)^6 -Leu^7 -Arg^8 -Pro^9 -DAla^10 NH2] (Ac-[d2Nal][dPhe(4-Cl)][d3Pal]S[NMeY][dK]([d3Pal-Shikimoyl])LRP[dA]-NH2) | 36.3 |
| CC(=O)N[C@H](Cc1ccc2ccccc2c1)C(=O)N[C@H](Cc1ccc(Cl)cc1)C(=O)N[C@H](Cc1cccnc1)C(=O)N[C@@H](CO)C(=O)N(C)[C@@H](Cc1ccc(O)cc1)C(=O)N[C@H](CCCCNC(=O)[C@@H](CO)NC(=O)CNC(=O)C1=C[C@@H](O)[C@@H](O)[C@H](O)C1)C(=O)N[C@@H](CC(C)C)C(=O)N[C@@H](CCCNC(=N)N)C(=O)N1CCC[C@H]1C(=O)N[C@H](C)C(N)=O [Example 48j, NAc-D2Nal^1 -D4ClPhe^2 -D3Pal^3 -Ser^4 -NMeTyr^5 -DLys(N-epsilon-D-Ser-Gly-Shikimyl)^6 -Leu^7 -Arg^8 -Pro^9 -DAla^10 NH2] (Ac-[d2Nal][dPhe(4-Cl)][d3Pal]S[NMeY][dK]([dS-Gly-Shikimoyl])LRP[dA]-NH2) | 17 |
| CC(=O)N[C@H](Cc1ccc2ccccc2c1)C(=O)N[C@H](Cc1ccc(Cl)cc1)C(=O)N[C@H](Cc1cccnc1)C(=O)N[C@@H](CO)C(=O)N(C)[C@@H](Cc1ccc(O)cc1)C(=O)N[C@H](CCCCNC(=O)[C@@H](CO)NC(=O)CNC(=O)c1cccnc1)C(=O)N[C@@H](CC(C)C)C(=O)N[C@@H](CCCNC(=N)N)C(=O)N1CCC[C@H]1C(=O)N[C@H](C)C(N)=O [Example 48k, NAc-D2Nal^1 -D4ClPhe^2 -D3Pal^3 -Ser^4 -NMeTyr^5 -DLys(N-epsilon-D-Ser-Gly-Nicotinyl)^6 -Leu^7 -Arg^8 -Pro^9 -DAla^10 NH2] (Ac-[d2Nal][dPhe(4-Cl)][d3Pal]S[NMeY][dK]([dS-Gly-Nicotinoyl])LRP[dA]-NH2) | 17 |
| CC(=O)N[C@H](Cc1ccc2ccccc2c1)C(=O)N[C@H](Cc1ccc(Cl)cc1)C(=O)N[C@H](Cc1cccnc1)C(=O)N[C@@H](CO)C(=O)N(C)[C@@H](Cc1ccc(O)cc1)C(=O)N[C@H](CCCNC(=O)CNC(=O)c1cccnc1)C(=O)N[C@@H](CC(C)C)C(=O)N[C@@H](CCCNC(=N)N)C(=O)N1CCC[C@H]1C(=O)N[C@H](C)C(N)=O [Example 49a, NAc-D2Nal^1 -D4ClPhe^2 -D3Pal^3 -Ser^4 -NMeTyr^5 -DOrn(N-epsilon-Gly-Nicotinyl)^6 -Leu^7 -Arg^8 -Pro^9 -DAla^10 NH2] (Ac-[d2Nal][dPhe(4-Cl)][d3Pal]S[NMeY][dOrn]([Gly-Nicotinoyl])LRP[dA]-NH2) | 15.5 |
| CC(=O)N[C@H](Cc1ccc2ccccc2c1)C(=O)N[C@H](Cc1ccc(Cl)cc1)C(=O)N[C@H](Cc1cccnc1)C(=O)N[C@@H](CO)C(=O)N(C)[C@@H](Cc1ccc(O)cc1)C(=O)N[C@H](CCCNC(=O)[C@@H](CO)NC(=O)c1cccnc1)C(=O)N[C@@H](CC(C)C)C(=O)N[C@@H](CCCNC(=N)N)C(=O)N1CCC[C@H]1C(=O)N[C@H](C)C(N)=O [Example 49b, NAc-D2Nal^1 -D4ClPhe^2 -D3Pal^3 -Ser^4 -NMeTyr^5 -DOrn(N-epsilon-DSer-Nicotinyl)^6 -Leu^7 -Arg^8 -Pro^9 -DAla^10 NH2] (Ac-[d2Nal][dPhe(4-Cl)][d3Pal]S[NMeY][dOrn]([dS-Nicotinoyl])LRP[dA]-NH2) | 15.5 |
| CC(=O)N[C@H](Cc1ccc2ccccc2c1)C(=O)N[C@H](Cc1ccc(Cl)cc1)C(=O)N[C@H](Cc1cccnc1)C(=O)N[C@@H](CO)C(=O)N(C)[C@@H](Cc1ccc(O)cc1)C(=O)N[C@H](CCCNC(=O)CNC(=O)C1=C[C@@H](O)[C@@H](O)[C@H](O)C1)C(=O)N[C@@H](CC(C)C)C(=O)N[C@@H](CCCNC(=N)N)C(=O)N1CCC[C@H]1C(=O)N[C@H](C)C(N)=O [Example 49c, NAc-D2Nal^1 -D4ClPhe^2 -D3Pal^3 -Ser^4 -NMeTyr^5 -DOrn(N-epsilon-Gly-Shikimyl)^6 -Leu^7 -Arg^8 -Pro^9 -DAla^10 NH2] (Ac-[d2Nal][dPhe(4-Cl)][d3Pal]S[NMeY][dOrn]([Gly-Shikimoyl])LRP[dA]-NH2) | 42.7 |
| CC(=O)N[C@H](Cc1ccc2ccccc2c1)C(=O)N[C@H](Cc1ccc(Cl)cc1)C(=O)N[C@H](Cc1cccnc1)C(=O)N[C@@H](CO)C(=O)N(C)[C@@H](Cc1ccc(O)cc1)C(=O)N[C@H](CCCNC(=O)[C@@H](CO)NC(=O)C1=C[C@@H](O)[C@@H](O)[C@H](O)C1)C(=O)N[C@@H](CC(C)C)C(=O)N[C@@H](CCCNC(=N)N)C(=O)N1CCC[C@H]1C(=O)N[C@H](C)C(N)=O [Example 49d, NAc-D2Nal^1 -D4ClPhe^2 -D3Pal^3 -Ser^4 -NMeTyr^5 -DOrn(N-epsilon-DSer-Shikimyl)^6 -Leu^7 -Arg^8 -Pro^9 -DAla^10 NH2] (Ac-[d2Nal][dPhe(4-Cl)][d3Pal]S[NMeY][dOrn]([dS-Shikimoyl])LRP[dA]-NH2) | 1.66 |
| CC(=O)N[C@H](Cc1ccc2ccccc2c1)C(=O)N[C@H](Cc1ccc(Cl)cc1)C(=O)N[C@H](Cc1cccnc1)C(=O)N[C@@H](CO)C(=O)N(C)[C@@H](Cc1ccc(O)cc1)C(=O)N[C@H](CCCCNC(=O)[C@@H](CO)NC(=O)c1cnc2ccccc2c1)C(=O)N[C@@H](CC(C)C)C(=O)N[C@@H](CCCNC(=N)N)C(=O)N1CCC[C@H]1C(=O)N[C@H](C)C(N)=O [Example 50d, NAc-D2Nal^1 -D4ClPhe^2 -D3Pal^3 -Ser^4 -NMeTyr^5 -DLys(N-epsilon-DSer-3-Quinolinyl)^6 -Leu^7 -Arg^8 -Pro^9 -DAla^10 NH2] (Ac-[d2Nal][dPhe(4-Cl)][d3Pal]S[NMeY][dK]([dS-Quinoline3carbonyl])LRP[dA]-NH2) | 47.9 |
| CC(=O)N[C@H](Cc1ccc2ccccc2c1)C(=O)N[C@H](Cc1ccc(Cl)cc1)C(=O)N[C@H](Cc1cccnc1)C(=O)N[C@@H](CO)C(=O)N(C)[C@@H](Cc1ccc(O)cc1)C(=O)N[C@H](CCCCNC(=O)[C@@H](CO)NC(=O)c1ccnc2ccccc12)C(=O)N[C@@H](CC(C)C)C(=O)N[C@@H](CCCNC(=N)N)C(=O)N1CCC[C@H]1C(=O)N[C@H](C)C(N)=O [Example 50e, NAc-D2Nal^1 -D4ClPhe^2 -D3Pal^3 -Ser^4 -NMeTyr^5 -DLys(N-epsilon-DSer-4-Quinolinyl)^6 -Leu^7 -Arg^8 -Pro^9 -DAla^10 NH2] (Ac-[d2Nal][dPhe(4-Cl)][d3Pal]S[NMeY][dK]([dS-Quinoline4carbonyl])LRP[dA]-NH2) | 28.8 |
| CC(=O)N[C@H](Cc1ccc2ccccc2c1)C(=O)N[C@H](Cc1ccc(Cl)cc1)C(=O)N[C@H](Cc1cccnc1)C(=O)N[C@@H](CO)C(=O)N(C)[C@@H](Cc1ccc(O)cc1)C(=O)N[C@H](CCCCNC(=O)[C@@H](CO)NC(=O)c1cnccn1)C(=O)N[C@@H](CC(C)C)C(=O)N[C@@H](CCCNC(=N)N)C(=O)N1CCC[C@H]1C(=O)N[C@H](C)C(N)=O [Example 50g, NAc-D2Nal^1 -D4ClPhe^2 -D3Pal^3 -Ser^4 -NMeTyr^5 -DLys(N-epsilon-DSer-2-Pyrazinecarbonyl)^6 -Leu^7 -Arg^8 -Pro^9 -DAla^10 NH2] (Ac-[d2Nal][dPhe(4-Cl)][d3Pal]S[NMeY][dK]([dS-Pyrazinecarbonyl])LRP[dA]-NH2) | 12.6 |
